Reference: EP4393921B1, “NALIDINONE COMPOUND AS FGFR4 INHIBITOR AND USE THEREOF” (Wenzhou Medical University, priority 2021, dated 2023)
Like-named read-outs stand apart in the source and are kept apart here.

Experiments:
FGFR2 = FGFR2 (Homo sapiens, UniProt P21802); experiment: Mobility shift assay, FGFR2 kinase inhibition
Description: (§2) A specific experimental method is as follows.
(§3) (1) A 1×Kinase buffer was prepared. […] (3) A kinase solution with a 2.5 times final concentration was prepared with the 1×Kinase buffer. (4) 10 µL of the kinase solution with a 2.5 times final concentration was added to compound holes and positive control holes, respectively; and 10 µL of the 1×Kinase buffer was added to negative control holes. (5) Centrifugation was performed at 1,000 rpm for 30 s, the reaction plate was shaken for even mixing, and incubation was performed at room temperature for 60 min. (6) A mixed solution, with a 25/15 times final concentration, of ATP and Kinase substrate22 was prepared with the 1×Kinase buffer. (7) 15 µL of a mixed solution, with a 5/3 times final concentration, of ATP and a substrate was added to carry out an initial reaction. (8) A 384-well plate was centrifuged at 1,000 rpm for 30 s and shaken for even mixing, and incubation was performed at room temperature for 30 min. (9) 30 µL of a terminal detection solution was added to stop a kinase reaction, centrifugation was performed at 1,000 rpm for 30 s, and shaking was performed for even mixing. (10) A conversion rate was read with Caliper EZ Reader.
(§4) A dose-effect curve is fitted as follows.
(§5) With a concentration log value as an X axis and an inhibition rate percentage as a Y axis, the dose-effect curve was fitted by log (inhibitor) vs. response-Variable slope of analysis software GraphPad Prism 5, so as to obtain an IC50 value of each compound on enzyme activity. A calculation formula is: Y=Bottom+(Top-Bottom)/(1+10^((LogIC50-X)*HillSlope)).

FGFR1 = FGFR1 (Homo sapiens, UniProt P11362); experiment: Mobility shift assay, FGFR1 kinase inhibition
Description: as §2, §3, §4, §5

FGFR3 = FGFR3 (Homo sapiens, UniProt P22607); experiment: Mobility shift assay, FGFR3 kinase inhibition
Description: as §2, §3, §4, §5

FGFR4 = FGFR4 (Homo sapiens, UniProt P22455); experiment: Mobility shift assay, FGFR4 kinase inhibition
Description: as §2, §3, §4, §5

[1] = tested on: colon cancer cells HCT-116; experiment: MTT proliferation assay on colon cancer cells HCT-116; type: cell-based; conditions: 3-100 µM, 72 h, dose-dependent, FIG. 4
Description: (§1) An MTT method was used for determination. An experimental method is briefly described as follows. A test compound 23 was first dissolved in DMSO to prepare a stock solution, and then the stock solution was subjected to gradient dilution with a corresponding cell culture medium to prepare a test sample, where a final concentration of the compound was in the range of 3-100 uM. Cells in a logarithmic culture stage were inoculated into a 96-well cell culture plate at an appropriate density, cultured overnight under corresponding conditions, and then continuously cultured for 72 h after the test compound sample was added. After the culture was completed, an appropriate volume of an MTT detection solution was added to each well, incubation was performed at 37°C for 1-4 h, and the culture medium was carefully discarded. […].

colon cancer cells SW480 = experiment: MTT proliferation assay on colon cancer cells SW480; type: cell-based; conditions: 3-100 µM, 72 h, dose-dependent, FIG. 5
Description: as §1

colon cancer cells RKO = experiment: MTT proliferation assay on colon cancer cells RKO; type: cell-based; conditions: 3-100 µM, 72 h, dose-dependent, FIG. 6
Description: as §1

Chain of FGFR4 (P22455 22-802): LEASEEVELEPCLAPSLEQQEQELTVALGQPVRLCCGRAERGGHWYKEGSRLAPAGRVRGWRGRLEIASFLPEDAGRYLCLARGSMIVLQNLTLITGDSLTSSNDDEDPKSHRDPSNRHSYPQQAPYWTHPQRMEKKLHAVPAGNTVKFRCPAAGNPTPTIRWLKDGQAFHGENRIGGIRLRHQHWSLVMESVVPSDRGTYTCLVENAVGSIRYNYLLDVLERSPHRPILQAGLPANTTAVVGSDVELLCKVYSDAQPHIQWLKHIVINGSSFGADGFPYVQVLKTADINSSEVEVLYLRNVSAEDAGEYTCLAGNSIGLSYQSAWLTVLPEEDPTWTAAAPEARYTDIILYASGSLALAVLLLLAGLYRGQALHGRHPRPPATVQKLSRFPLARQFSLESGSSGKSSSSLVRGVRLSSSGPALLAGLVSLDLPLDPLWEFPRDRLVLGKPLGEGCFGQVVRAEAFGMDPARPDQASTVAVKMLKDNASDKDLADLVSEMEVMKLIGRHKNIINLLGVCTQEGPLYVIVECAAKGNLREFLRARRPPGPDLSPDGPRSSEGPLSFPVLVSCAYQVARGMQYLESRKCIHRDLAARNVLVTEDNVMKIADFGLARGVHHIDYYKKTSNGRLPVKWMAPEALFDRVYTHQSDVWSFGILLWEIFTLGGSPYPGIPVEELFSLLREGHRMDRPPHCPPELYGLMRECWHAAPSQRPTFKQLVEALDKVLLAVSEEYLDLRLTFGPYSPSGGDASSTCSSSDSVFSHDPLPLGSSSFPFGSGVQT
Chain of FGFR3 (P22607 23-806): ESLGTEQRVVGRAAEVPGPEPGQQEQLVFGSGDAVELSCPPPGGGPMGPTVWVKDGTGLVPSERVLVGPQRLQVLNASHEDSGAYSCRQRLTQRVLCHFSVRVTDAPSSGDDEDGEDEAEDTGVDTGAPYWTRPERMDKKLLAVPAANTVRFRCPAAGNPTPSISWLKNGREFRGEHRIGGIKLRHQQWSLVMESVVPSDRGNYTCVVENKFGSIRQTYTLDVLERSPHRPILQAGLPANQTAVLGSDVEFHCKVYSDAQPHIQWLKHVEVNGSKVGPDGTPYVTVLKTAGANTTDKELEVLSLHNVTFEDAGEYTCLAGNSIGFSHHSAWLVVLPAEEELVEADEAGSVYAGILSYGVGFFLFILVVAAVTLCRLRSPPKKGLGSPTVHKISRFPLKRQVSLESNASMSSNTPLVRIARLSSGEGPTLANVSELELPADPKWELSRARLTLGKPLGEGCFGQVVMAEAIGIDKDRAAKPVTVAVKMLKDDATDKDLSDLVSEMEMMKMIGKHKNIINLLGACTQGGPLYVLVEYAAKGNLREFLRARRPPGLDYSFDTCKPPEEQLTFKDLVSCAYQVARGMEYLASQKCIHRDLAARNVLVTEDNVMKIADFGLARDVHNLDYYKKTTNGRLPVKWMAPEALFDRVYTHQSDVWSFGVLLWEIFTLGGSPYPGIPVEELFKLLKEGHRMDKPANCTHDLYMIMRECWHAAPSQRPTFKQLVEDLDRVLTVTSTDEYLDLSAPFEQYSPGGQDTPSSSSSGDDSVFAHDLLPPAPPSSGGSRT
Chain of FGFR2 (P21802 22-821): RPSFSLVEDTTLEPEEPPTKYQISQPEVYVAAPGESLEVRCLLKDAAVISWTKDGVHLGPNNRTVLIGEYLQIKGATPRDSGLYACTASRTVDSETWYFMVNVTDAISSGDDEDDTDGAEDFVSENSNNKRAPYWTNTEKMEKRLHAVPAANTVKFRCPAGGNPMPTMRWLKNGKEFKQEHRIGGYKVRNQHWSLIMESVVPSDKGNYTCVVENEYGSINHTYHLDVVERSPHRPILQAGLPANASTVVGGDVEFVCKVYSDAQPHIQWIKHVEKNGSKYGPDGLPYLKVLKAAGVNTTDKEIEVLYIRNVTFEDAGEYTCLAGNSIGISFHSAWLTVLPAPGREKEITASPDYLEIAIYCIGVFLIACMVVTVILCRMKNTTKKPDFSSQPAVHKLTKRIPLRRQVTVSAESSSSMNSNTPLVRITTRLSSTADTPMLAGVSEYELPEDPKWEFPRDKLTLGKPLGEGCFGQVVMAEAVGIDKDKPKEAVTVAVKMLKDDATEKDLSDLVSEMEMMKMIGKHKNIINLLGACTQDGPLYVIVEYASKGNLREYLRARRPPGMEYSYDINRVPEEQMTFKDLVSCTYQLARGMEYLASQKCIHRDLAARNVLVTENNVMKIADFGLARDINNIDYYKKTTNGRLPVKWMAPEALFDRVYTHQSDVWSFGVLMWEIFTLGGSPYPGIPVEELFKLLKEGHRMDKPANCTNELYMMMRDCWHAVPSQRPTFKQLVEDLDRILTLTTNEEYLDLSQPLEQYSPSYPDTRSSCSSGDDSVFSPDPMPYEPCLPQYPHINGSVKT
Chain of FGFR1 (P11362 22-822): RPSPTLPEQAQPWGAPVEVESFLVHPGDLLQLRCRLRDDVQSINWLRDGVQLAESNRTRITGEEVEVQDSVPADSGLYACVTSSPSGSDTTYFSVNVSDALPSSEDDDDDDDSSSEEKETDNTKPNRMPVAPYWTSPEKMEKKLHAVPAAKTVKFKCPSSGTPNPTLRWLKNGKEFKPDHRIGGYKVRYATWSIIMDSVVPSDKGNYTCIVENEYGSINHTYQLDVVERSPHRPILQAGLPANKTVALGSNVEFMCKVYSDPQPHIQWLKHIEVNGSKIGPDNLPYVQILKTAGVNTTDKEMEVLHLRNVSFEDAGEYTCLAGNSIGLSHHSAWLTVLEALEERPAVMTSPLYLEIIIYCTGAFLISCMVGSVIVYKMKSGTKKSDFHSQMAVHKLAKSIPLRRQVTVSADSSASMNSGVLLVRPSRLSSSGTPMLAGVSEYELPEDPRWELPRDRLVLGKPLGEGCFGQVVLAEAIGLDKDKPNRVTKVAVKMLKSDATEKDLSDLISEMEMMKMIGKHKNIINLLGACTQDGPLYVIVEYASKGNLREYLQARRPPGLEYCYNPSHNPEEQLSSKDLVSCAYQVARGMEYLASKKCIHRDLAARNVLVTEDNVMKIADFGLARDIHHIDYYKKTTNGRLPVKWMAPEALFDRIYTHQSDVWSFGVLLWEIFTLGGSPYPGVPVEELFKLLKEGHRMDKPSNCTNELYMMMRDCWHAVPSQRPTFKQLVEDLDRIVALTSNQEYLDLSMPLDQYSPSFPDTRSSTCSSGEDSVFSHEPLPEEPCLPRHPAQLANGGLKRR

Compound | IC50 (FGFR2) [µM] | IC50 (FGFR1; read-out: IC50 (nM) FGFR1, Mobility shift assay) [nM] | IC50 (FGFR3) [µM] | IC50 (FGFR1) [nM] | IC50 (FGFR4) [µM] | inhibition of proliferation of colon cancer cells HCT-116 [1] | inhibition of proliferation of colon cancer cells SW480 (colon cancer cells SW480) | inhibition of proliferation of colon cancer cells RKO (colon cancer cells RKO)
C=CC(=O)Nc1cccc(C)c1Nc1ncc2cc(-c3c(Cl)c(OC)cc(OC)c3Cl)ccc2n1 [BLU9931, reference compound] | 0.436 | 582 | 0.193 |  |  |  |  | 
C=CC(=O)Nc1cccc(C)c1Nc1cc2c(cn1)cc(-c1cc(OC)cc(OC)c1)c(=O)n2CCCN1CCCCC1 [Compound 22, N-(2-((3-(3,5-dimethoxyphenyl)-2-oxo-1-(3-(piperidin-1-yl)propyl)-1,2-dihydro-1,6-naphthyridin-7-yl)amino)-3-methylphenyl)acrylamide] | > 5 |  | > 5 | > 5000 | 0.0098 |  |  | 
C=CC(=O)Nc1cccc(C)c1Nc1cc2c(cn1)cc(-c1c(Cl)c(OC)cc(OC)c1Cl)c(=O)n2CCCN1CCCCC1 [Compound 23, N-(2-((3-(2,6-dichloro-3,5-dimethoxyphenyl)-2-oxo-1-(3-(piperidin-1-yl)propyl)-1,2-2H-1,6-naphthyridin-7-yl)amino)-3-methylphenyl)acrylamide] | > 5 |  | > 5 | > 5000 | 0.0037 | can inhibit proliferation | can inhibit proliferation | can inhibit proliferation
C=CC(=O)Nc1cccc(C)c1Nc1cc2c(cn1)cc(-c1cc(OC)cc(OC)c1)c(=O)n2CCCN1CCN(C)CC1 [Compound 24, N-(2-((3-(3,5-dimethoxyphenyl)-2-oxo-1-(3-(4-methylpiperazin-1-yl)propyl)-1,2-dihydro-1,6-naphthyridin-7-yl)amino)-3-methylphenyl)acrylamide] | > 5 |  | > 5 | > 5000 | 0.0344 |  |  | 

More lines, main results first:

IC50 (FGFR2) [µM] | IC50 (FGFR1; read-out: IC50 (nM) FGFR1, Mobility shift assay) [nM] | IC50 (FGFR3) [µM] | IC50 (FGFR1) [nM] | IC50 (FGFR4) [µM] | Compound | inhibition of proliferation of colon cancer cells HCT-116 [1] | inhibition of proliferation of colon cancer cells SW480 (colon cancer cells SW480) | inhibition of proliferation of colon cancer cells RKO (colon cancer cells RKO)
> 5 |  | > 5 | > 5000 | 0.0058 | C=CC(=O)Nc1cccc(C)c1Nc1cc2c(cn1)cc(-c1c(Cl)c(OC)cc(OC)c1Cl)c(=O)n2CCCN1CCN(C)CC1 [Compound 25, N-(2-((3-(2,6-dichloro-3,5-dimethoxyphenyl)-2-oxo-1-(3-(4-methylpiperazin-1-yl)propyl)-1,2-2H-1,6-naphthyridin-7-yl)amino)-3-methylphenyl)acrylamide] |  |  | 
> 5 |  | > 5 | > 5000 |  | C=CC(=O)Nc1cccc(C)c1Nc1cc2c(cn1)cc(-c1cc(OC)cc(OC)c1)c(=O)n2CCCN1CCOCC1 [Compound 26, N-(2-((3-(3,5-dimethoxyphenyl)-1-(3-morpholinopropyl)-2-oxo-1,2-dihydro-1,6-naphthyridin-7-yl)amino)-3-methylphenyl)acrylamide] |  |  | 
> 5 |  | > 5 | > 5000 | 0.0044 | C=CC(=O)Nc1cccc(C)c1Nc1cc2c(cn1)cc(-c1c(Cl)c(OC)cc(OC)c1Cl)c(=O)n2CCCN1CCOCC1 [Compound 27, N-(2-((3-(2,6-dichloro-3,5-dimethoxyphenyl)-1-(3-morpholinopropyl)-2-oxo-1,2-2H-1,6-naphthyridin-7-yl)amino)-3-methylphenyl)acrylamide] |  |  | 
> 5 |  | > 5 | > 5000 | 0.0315 | C=CC(=O)Nc1cccc(C)c1Nc1cc2c(cn1)cc(-c1cc(OC)cc(OC)c1)c(=O)n2CCCO [Compound 29] |  |  | 
> 5 |  | > 5 | > 5000 |  | C=CC(=O)Nc1cccc(C)c1Nc1cc2c(cn1)cc(-c1c(Cl)c(OC)cc(OC)c1Cl)c(=O)n2CCCO [Compound 30, N-(2-((3-(2,6-dichloro-3,5-dimethoxyphenyl)-1-(3-hydroxypropyl)-2-oxo-1,2-2H-1,6-naphthyridin-7-yl)amino)-3-methylphenyl)acrylamide] |  |  | 
